Data: US9844556B2, “Preventive/therapeutic method and preventive/therapeutic agent for complications after cataract surgery” (KOWA COMPANY, LTD., priority 2015, dated 2017)

Tests used:
[1] = test system: Human lens epithelial cells (HLEpiC); assay: Reversibility of inhibition of actin stress fiber formation after removal; assay type: cell-based; conditions: recultured about 24 hours after removal
Description: After removal of the test substance, positive control or comparative control in Example 1, the cells were recultured for about another 24 hours, treated in accordance with the operation in Example 1, and then observed by a confocal laser scanning microscope in the same manner as in Example 1 to observe the reversibility of actin stress fibers.

HLEpiC [2] = assay: Determination of G-actin/F-actin ratio using G-Actin/F-Actin In Vivo Assay Kit; assay type: cell-based, human; conditions: about an hour, control 1.16
Description: HLEpiC was diluted with a medium (Epithelial Cell Medium), and dispensed to a Poly-L-lysine coated T-75 flask at about 5000 cells/cm^2, and cultured in a carbon dioxide incubator (37° C., 5% CO2) until about 50% confluent. A test substance, a positive control or the medium (control) at each concentration given below was added to each flask at 20 mL.
Test substance: Ripasudil with a concentration of […], 100 μM or 1 mM,
Positive control: CD with a concentration of 2 μM, and
These were treated in a carbon dioxide incubator (37° C., 5% CO2) for about an hour.
To 20 mL of Lysis and F-actin stabilization buffer was added 200 μL of 100 mM ATP stock solution and 200 μL of 100× Protease inhibitor cocktail stock to produce LAS2 buffer, and this was incubated in a carbon dioxide incubator (37° C.) for about 30 minutes. Warmed LAS2 buffer was added at 2.5 mL to each flask in which the medium was removed with vacuum suction.
Next, adherent HLEpiC was completely scraped with a cell scraper and transferred with the LAS2 buffer to a conical tube, and HLEpiC was crushed with a micropipette (hereinafter, referred to as cell solution). This cell solution was incubated in a carbon dioxide incubator (37° C.) for about 10 minutes and then centrifuged for 10 minutes (2000 rpm, room temperature). The supernatant was dispensed into an ultracentrifugal tube at 1.8 mL and centrifuged for an hour with an ultracentrifuge (100,000× g, 37° C.). At this time, F-actin is precipitated and G-actin remains in the supernatant.
The supernatant was transferred to a conical tube while being careful not to suck F-actin precipitates.
To precipitates of each sample was added 1.8 mL of F-actin depolymerizing buffer, and this was incubated under ice-cold conditions for an hour to depolymerize actin.
From each supernatant sample and precipitate sample, 100 μL each was put in a 1.5 mL Eppendorf tube, and 25 μL of 5×SDS sample buffer was added and stirred.
Each sample was boiled in a boiling water bath for 5 minutes.
Each sample was subjected to SDS-polyacrylamide gel electrophoresis, followed by Western blotting.
Next, after treatment using a Western blotting detection reagent (ECL Select Western Blotting Detection Reagent, GE Healthcare Japan), proteins were detected using a Lumino image analyzer. The quantities of G-actin and F-actin were determined using an analysis software (ImageQuant TL, GE Healthcare Japan) and the G-actin/F-actin ratio was calculated.
The variation in the quantity of F-actin required to form actin stress fibers was evaluated by comparison with the G-actin/F-actin ratio of untreated (Control) cells.

HLEpiC [3] = assay: Reversibility of inhibition of cell migration after removal; assay type: cell-based, human; conditions: for time after removal at which Detection Zone was filled with HLEpiC: then removal
Description: After the operation in Example 4, the test substance, the positive control, or the comparative control was removed, and after brief washing with the medium, the medium was added at 100 μL/well, and the cells were cultured in a carbon dioxide incubator (37° C., 5% CO2).

Normal human fibroblasts = assay: Cytostatic action, BrdU uptake (Cell Proliferation ELISA); assay type: cell-based; conditions: dermal fibroblast proliferation, 2 days
Description: Normal human fibroblasts (Sanko Junyaku Co., Ltd.) were seeded at 2000 cells/well and cultured overnight. Next day, the medium (FGM-2 (Sanko Junyaku Co., Ltd.)) was exchanged (150 μL), and 10 μL of Ripasudil was then added so that the final concentration was 0.1 μM, 1 μM and 10 μM. After culturing for 2 days, 10 μL of BrdU (58.8-fold diluted solution: an undiluted solution is a 1000-fold solution) was added, and the cells were cultured for 2 hours. OD540-620 was measured using a plate reader after fixation and antibody addition, washing and coloring, and reaction termination in accordance with the protocol of Cell Proliferation ELISA BrdU kit (Roche), and an action on proliferation was evaluated. A value in a sample in which Ripasudil is not added is considered as 100%, and the uptake rate of BrdU under each condition is shown in Table 2.

[4] = test system: Human lens epithelial cells (SRA01/04); assay: Action on DNA synthesis capability (BrdU uptake) of human lens epithelial cell line; assay type: cell-based; conditions: 24 hours
Description: Human lens epithelial cells (SRA01/04 (Riken Cell Bank)) were cultured using 20% FBS-DMEM medium under conditions of 37° C. and 5% CO2. The concentration of SRA01/04 was adjusted using 2% FBS-DMEM, and the cells were seeded in a 96 Well Plate at 100 μL/well (5000 cells/well) and cultured under conditions of 37° C. and 5% CO2 for 24 hours. The medium was exchanged with 5% FBS-DMEM medium, and TGFβ at 10 ng/mL (final concentration) or Ripasudil at 10, 30 or 100 μM (final concentration) was added to each well, and the cells were cultured for another 24 hours. The uptake rate of 5-bromo-2′-deoxyuridine (BrdU) in the cells was measured using Cell Proliferation ELISA, BrdU (colorimetric) kit (Roche) at a measurement wavelength of 450 nm by Multiskan MS version 8.0 (LABSYSTEMS), and cell proliferation properties were evaluated.

[5] = test system: HT-1080 cell-containing collagen gel; assay: Inhibitory action on collagen gel contraction; assay type: cell-based; design: key: +: a contraction level was almost equal to that of a group to which Ripasudil was not added; ++: contraction was inhibited; +++: contraction was significantly inhibited; conditions: HT1080 collagen gel, two or three days
Description: HT-1080 cell suspension adjusted to a density of 150000 to 200000 cells/mL with a medium (medium: E'MEM (Sigma)/10% FBS/NEAA/PCSM), and a solution, obtained by mixing A, B and C solutions (A solution: Cellmatrix (Collagen Type I 3 mg/mL), B solution: concentrated culture solution, 10×MEM Hank's culture solution, and C solution: buffer solution for reconstitution) of collagen gel culture kit (Nitta Gelatin Inc.) mixed at a ratio of 8:1:1 and cooling the obtained mixture, were mixed at a ratio of 1.4:1, and the obtained mixture was seeded in a 48 Well Plate at 500 μL/well and gelatinized in a CO2 incubator to produce a cell-containing collagen gel. After gelation, 1 mL of the medium in which Ripasudil was adjusted to 0.1 μM, 1 μM or 10 μM was added on the gel, and an injection needle was inserted between the gel and the wall surface to release the gel from the wall surface, and the gel was incubated to stand in a CO2 incubator. After two or three days, the contraction of the gel was observed, and photos were taken to evaluate the actions of Ripasudil.

C[C@H]1CNCCCN1S(=O)(=O)c1cccc2cncc(F)c12 [Ripasudil, 4-fluoro-5-{[(2S)-2-methyl-1,4-diazepan-1-yl]sulfonyl}isoquinoline]
reversibility of actin stress fibers ([1]; 100 μM): recovered | reversibility of actin stress fibers ([1]; 1 mM): recovered | G-actin/F-actin ratio (HLEpiC [2]; 10 μM): 1.91 | G-actin/F-actin ratio (HLEpiC [2]; 100 μM): 4.55 | G-actin/F-actin ratio (HLEpiC [2]; 1 mM): 24.87 | time after removal at which Detection Zone was filled with HLEpiC (HLEpiC [3]; 100 μM treatment): about 24 hours | state of Detection Zone about 48 hours after removal (HLEpiC [3]; 1 mM treatment, about 48 hours after removal): not filled with HLEpiC | time after removal at which Detection Zone was filled with HLEpiC (HLEpiC [3]; 1 mM treatment): 116 h | Uptake rate of BrdU (% of control) (Normal human fibroblasts; Ripasudil 0.1 μM): 80.0 % of control | Uptake rate of BrdU (% of control) (Normal human fibroblasts; Ripasudil 1.0 μM): 59.3 % of control | Uptake rate of BrdU (% of control) (Normal human fibroblasts; Ripasudil 10.0 μM): 10.9 % of control | DNA synthesis capability (BrdU uptake) of SRA01/04 ([4]; 30 μM): statistically significant decrease | DNA synthesis capability (BrdU uptake) of SRA01/04 ([4]; 10, 30 or 100 μM): dose-dependent inhibitory action | Inhibition of contraction ([5]; Ripasudil 0.1 μM): + | Inhibition of contraction ([5]; Ripasudil 1.0 μM): ++ | Inhibition of contraction ([5]; Ripasudil 10.0 μM): +++
